Patent US20260151457A1, “Peptides and Fragments for Treating Diabetes and Associated Metabolic Diseases” (Betavive Ltd., priority 2024, published 2026)

Key:
[1] = Safety/toxicity: pathology of blood samples and tissue samples from thirty organs; assay type: in vivo; details: end of 10 days of treatment, 24 days after termination, and 100 days after termination of 30 days of treatment
STZ-treated mice = experiment: Serum insulin and c-peptide levels in STZ-treated mice four weeks after IGF-2 treatment; assay type: in vivo; details: four weeks post treatment
Description: Fasting blood glucose levels (mg/dL) were determined using the Accu-Chek Performa glucometer (Roche Diagnostics, Mannheim, Germany). After approximately two weeks of stable hyperglycemia, C57BL/6 STZ mice received exogenous injections of recombinant human IGF-2 (0.3-12 mg/kg/day injection) intraperitoneally for 5-10 consecutive days. During post-treatment follow-up period and upon termination, mice were tested for: fasting glucose, body weight, glucose tolerance test (IPGTT), serum C-peptide level, serum insulin level, and full blood and histological analysis (CBC, Chemistry, Insulin IHC and H&E).
C-peptide is a biomarker used to assess pancreatic beta cell function and is normally produced in equimolar amounts to endogenous insulin. Leighton et al., A Practical Review of C-Peptide Testing in Diabetes, Diabetes Ther. 2017 June; 8 (3): 475-487.

db/db mice = experiment: 14 hour fasting blood glucose in db/db mice treated with IGF-2; assay type: in vivo
Description: db/db mice are bred to have a leptin deficiency, increasing susceptibility of the mice to obesity, insulin resistance, and type 2 diabetes (T2D).
In this experiment, one group of db/db mice was injected with 3000 μg/kg/day of IGF-2 for 68 days, a second group of db/db mice was injected with 12000 μg/kg/day of IGF-2 for 66 days, and a third group of db/db mice was injected with saline once a day for 68 days.
In one experiment (left panel), one group of db/db mice was injected with a daily dose of 12000 μg/kg of IGF-2 divided in two injections per day for 70 days, while another group of db/db mice was injected with saline. […] In another experiment (right panel), one group of db/db mice was injected with a daily dose of 12000 μg/kg of IGF-2 divided in two injections per day for 35 days, while another group of db/db mice was injected with saline.
In one exemplary experiment, db/db mice were treated with a 12,000 μg/kg daily dose for 70 days with 70 days of follow up (during which IGF-2 was not administered). All the treated mice maintained normoglycemia for at least 50 days following treatment. In another exemplary experiment, db/db mice were treated with a 12,000 μg/kg daily dose for 35 days with 35 days of follow up (during which IGF-2 was not administered). All the treated mice maintained normoglycemia for 35 days following treatment.

Human pancreatic islets = experiment: Peptides efficacy on human pancreatic islets (IHC, digital quantitative pathological analysis); assay type: cell-based; details: IGF-2 500 nM, Peptide-20 1000 nM, five days
Description: Human pancreatic islets, obtained from Prodo Labs, were cultured in Prodo Labs PIM(S) media and maintained at 37° C. with 5% CO2 to ensure optimal viability. The islets were treated with IGF-2 (500 nM) and Peptide-20 (1000 nM) for five days under continuous exposure. After treatment, islets were collected and fixed in 4% paraformaldehyde (PFA) to preserve cellular and structural integrity. The samples were then processed for formalin-fixed paraffin-embedded (FFPE) histology. Sectioned islets were stained using immunohistochemistry (IHC) with specific markers to assess islet integrity, β-cell function, and proliferation. Microscopic Digital Quantitative Pathological Analysis provided critical insights into the effects of IGF-2 and Peptide-20 on islet structure and function. […] These findings establish Peptide-20 as a strong candidate for novel diabetes therapies aimed at restoring islet function and reversing β-cell loss. […] Their ability to enhance β-cell survival and proliferation positions them as strong candidates for the development of novel regenerative therapies, paving the way for innovative drug development aimed at reversing diabetes and restoring endogenous insulin production.

NOD mice = experiment: Serum insulin / insulin secretion in NOD mice treated with IGF-2; assay type: in vivo
Description: FIG. 30B depicts the levels of serum insulin in NOD mice measured two weeks after a 66 day course of treatment using IGF-2. Mice that were treated with 3000 μg/kg/day of IGF-2 had serum insulin levels that were about 4-fold higher than the control mice.
In one exemplary experiment, NOD mice were treated with a 3000 μg/kg daily doses of IGF-2 for 150 days. ⅘ of the treated mice maintained normoglycemia compared to ¼ of the control mice. In another exemplary experiment, NOD mice were treated with a 3000 μg/kg daily dose of IGF-2 for 75 days with follow-up glucose measurements taken for an additional 90 days (during which IGF-2 was not administered). ⅝ of the treated mice maintained normoglycemia compared to 2/11 of the control mice. The average insulin secretion of the treated mice in both of these experiments was five times greater than the control mice.

With insulin-like growth factor 2 [IGF-2] the “Pathologies related to treatment in blood samples and tissue samples from thirty organs” value [1] was “No pathologies were identified”, the “Increase in c-peptide levels” value (STZ-treated mice; four STZ-treated mice) was 12 fold and the “Increase in serum insulin compared to STZ treated control mice” value (STZ-treated mice; permanently cured mice) was 50%. For the same substance, the “14 hour fasting blood glucose levels” value (db/db mice; 3000 μg/kg/day for 68 days, first group b178, second group b179) was “reduced blood glucose levels (14 hour fasting blood glucose levels) to a normal range even after the end of the 68 day treatment period”, the “Time all treated mice maintained normoglycemia following treatment” value (db/db mice; 12,000 μg/kg daily for 35 days, 35 days of follow up) was 35 days and the “Time all treated mice maintained normoglycemia following treatment” value (db/db mice; 12,000 μg/kg daily for 70 days, 70 days of follow up) was “at least 50 days”. The “14 hour fasting blood glucose levels” value (db/db mice; 12000 μg/kg daily in two injections per day for 35 days) was “reduced blood glucose levels (14 hour fasting blood glucose levels) to a normal range even after the end of the 35 day treatment period”, the “14 hour fasting blood glucose levels” value (db/db mice; 12000 μg/kg daily in two injections per day for 70 days) was “reduced blood glucose levels (14 hour fasting blood glucose levels) to a normal range even after the end of the 70 day treatment period” and the “14 hour fasting blood glucose levels” value (db/db mice; 12000 μg/kg/day for 66-68 days, first group b178, second group b179) was “reduced blood glucose levels (14 hour fasting blood glucose levels) to a normal range even after the end of the 68 day treatment period”. The “Pancreatic islet regeneration, integrity and function” value (Human pancreatic islets) was “significant regenerative potential”, the “Serum insulin levels relative to the control mice” value (NOD mice; 3000 μg/kg/day for 66 days, measured two weeks after treatment) was “about 4 fold” and the “Average insulin secretion of the treated mice relative to the control mice” value (NOD mice; both experiments (150 days; 75 days plus 90 days follow-up)) was “five”.
